Laboratory results published in PubChem BioAssay (NCI).
Several values for one entry are separate records, joined by “and”; a condition that tells them apart may be missing. Equal entries are not always repeated.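 Tested at 5 concentrations; 48 h exposure; 96-well plates; endpoints linearly interpolated, else capped at highest concentration. GI50 = concentration required for 50% inhibition of growth. At the TGI there is no net growth.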

Experiments:
Assay in all cases: DTP human tumour cell line panel, 48 h
HCC-2998 colon = system: HCC-2998 colon
K-562 leukemia = system: K-562 leukemia
LOX IMVI melanoma = system: LOX IMVI melanoma
NCI-H23 lung = system: NCI-H23 lung
OVCAR-3 ovarian = system: OVCAR-3 ovarian
OVCAR-4 ovarian = system: OVCAR-4 ovarian
SNB-75 CNS = system: SNB-75 CNS
T-47D breast = system: T-47D breast
TK-10 renal = system: TK-10 renal
U251 CNS = system: U251 CNS

Row | Structure (SMILES) | GI50 (HCC-2998 colon) | TGI (HCC-2998 colon) | GI50 (K-562 leukemia) | TGI (K-562 leukemia) [µM] | GI50 (LOX IMVI melanoma) | TGI (LOX IMVI melanoma) [µM] | GI50 (NCI-H23 lung) [µM] | TGI (NCI-H23 lung) [µM] | GI50 (OVCAR-3 ovarian) | TGI (OVCAR-3 ovarian) [µM] | GI50 (OVCAR-4 ovarian) [µM] | TGI (OVCAR-4 ovarian) [µM] | GI50 (SNB-75 CNS) [µM] | TGI (SNB-75 CNS) [µM] | GI50 (T-47D breast) | TGI (T-47D breast) [µM] | GI50 (TK-10 renal) [µM] | TGI (TK-10 renal) [µM] | GI50 (U251 CNS) [µM] | TGI (U251 CNS) [µM]
1 | Cc1nnn(C)c1-c1cnc2c3ccc(C(C)(C)O)cc3n([C@H](c3ccccc3)C3CCOCC3)c2c1 | 0.0356 µM | 3.98 µM | < 0.01 µM | > 100 | < 0.01 µM | 1.52 | 0.158 | 34.1 | 0.0271 µM | 14.8 | 0.033 | > 100 | < 0.01 | 20.3 | 0.0104 µM | > 100 | < 0.01 | 11 | 0.27 | > 47.5
2 | O=C(COc1ccccc1)NNc1ccccc1 | 27.2 µM and 26.6 µM | > 300 µM | 3.67 µM and 6.43 µM | > 300 | 12.3 µM and 12.2 µM | > 300 | > 300 | > 300 | > 95.4 µM and 191 µM | > 300 | > 300 | > 300 | 60.8 | 251 | 35.2 µM and 19 µM | > 300 | > 300 | > 300 | 195 | > 300
3 | CCOc1ccc(-c2nc3ccc(-c4nc5ccc(N6CCN(C)CC6)cc5[nH]4)cc3[nH]2)cc1 | 0.267 µM and 0.196 µM | 0.543 µM and 0.415 µM | 0.696 µM |  | 0.188 µM | 0.485 | 0.288 | 1.44 | 0.125 µM | 0.393 | 0.219 | 0.838 | 0.131 | 0.354 | 0.299 µM | 2.2 | 1.05 | 2.24 | 0.155 | 1.05
4 | COc1ccc(Nc2ncc(I)c(NCCCNC(=O)C3CCC3)n2)cc1 | 13.5 µM | 67.3 µM | 8.99 µM | > 100 | 1.66 µM | 13.6 | 5.26 | 46.9 | 7.83 µM | 33.8 | 9.31 | 64.2 | 0.464 | 7.75 | 28.4 µM | 79 | 0.897 | 9.78 | 2.08 | 28.9
5 | OCc1ccc(-c2nc(-c3ccc4c(c3)OCO4)c(-c3ccccn3)[nH]2)cc1 | > 25 µM | > 25 µM | > 25 µM | > 25 | 19 µM | > 25 | > 25 | > 25 | > 25 µM | > 25 | > 25 | > 25 | > 7.04 | > 25 | > 23.2 µM | > 25 | > 25 | > 25 | > 25 | > 25
6 | COc1ccc(OC)c(N2CC(O)=C(c3nc4ccccc4s3)C2=N)c1 | 32.5 µM | > 100 µM | 23.6 µM | > 100 | 45.4 µM | > 100 | > 100 | > 100 | 74.1 µM | > 100 | 45.6 | > 100 | 32 | > 100 | > 100 µM | > 100 | > 100 | > 100 | 51.5 | > 100
